According to patent publication US20250129028A1, “COMPOUNDS AND METHODS FOR YAP/TEAD MODULATION AND INDICATIONS THEREFOR” (Opna Bio SA, priority 2022, published 2025):

The compounds below were run on TEAD-dependent transcription (assay: TEAD-dependent transcription cell-based reporter assay (MSTO-211H+12XGTIIC luciferase)). Details: Homo sapiens; MSTO-211H+12XGTIIC cell line, luciferase signal normalized to cell viability, 24 hours compound incubation; read-out: MSTO-211H GMean IC50 (uM) Cell Assay Reporter Cell Variant: TEAD.
Parameters: species or system human
Summary of the method: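 MSTO-211H mesothelioma cells stably carrying a 12xGTIIC TEAD-response-element luciferase reporter, treated with serial compound dilutions for 24 h at 37 °C. Luminescence normalized to CellTiter-Fluor viability signal; % inhibition versus DMSO and 20 μM K-975 controls, IC50 by nonlinear regression.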

For `O=C(Cc1cnc[nH]1)N1CCc2c(cccc2Oc2ccc(C(F)(F)F)cc2)C1` [P-0242, 2-(1H-imidazol-5-yl)-1-(5-(4-(trifluoromethyl)-phenoxy)-3,4-dihydroiso-quinolin-2(1H)-yl)ethan-1-one], which IC50 is on record?
Its IC50 is 0.001 to 10 µM.

For `CS(=O)(=O)CCC(=O)N1CCc2ccc(Oc3ccc(C(F)(F)F)cc3)cc2C1` [P-0018, 3-(methylsulfonyl)-1-(7-(4-(trifluoromethyl)phenoxy)-3,4-dihydroisoquinolin-2(1H)-yl)propan-1-one], which IC50 is on record?
Its IC50 is 0.001 to 10 µM.

With `NC(=O)N1CCc2ccc(Oc3ccc(C(F)(F)F)cc3)cc2C1` [P-0010, 7-(4-(trifluoromethyl)-phenoxy)-3,4-dihydroiso-quinoline-2(1H)-carbox-amide] as the compound, how does the IC50 read?
The IC50 was 0.001 to 10 µM.

With `O=C(Cc1cnccc1O)N1CCc2ccc(Oc3ccc(C(F)(F)F)cc3)cc2C1` [P-0047, 2-(4-hydroxypyridin-3-yl)-1-(7-(4-(trifluoro-methyl)phenoxy)-3,4-dihydroisoquinolin-2(1H)-yl)ethan-1-one] as the compound, how does the IC50 read?
The IC50 was 0.001 to 10 µM.

With `Nc1ccc(C(=O)N2CCc3c(cccc3Oc3ccc(C(F)(F)F)cc3)C2)cn1` [P-0245, (6-aminopyridin-3-yl)(5-(4-(trifluoromethyl)phen-oxy)-3,4-dihydroisoquin-olin-2(1H)-yl)methanone] as the compound, how does the IC50 read?
Its IC50 is 0.001 to 10 µM.

For `C=CC(=O)N1CCCC(C(=O)N2CCc3ccc(Oc4ccc(C(F)(F)F)c(F)c4)cc3C2)C1` (centres unmarked) [P-0120, 1-(3-(7-(3-fluoro-4-(trifluoromethyl)phen-oxy)-1,2,3,4-tetrahydro-isoquinoline-2-carbon-yl)piperidin-1-yl)prop-2-en-1-one], which IC50 is on record?
Its IC50 is 0.001 to 10 µM.

`C=CC(=O)N1CCC(C2c3cc(Oc4ccc(C(F)(F)F)cc4)ccc3CCN2C(=O)CCS(C)(=O)=O)C1` (single isomer, unassigned) [P-0217, 1-(3-(2-(3-(methylsulfonyl)propanoyl)-7-(4-(trifluoromethyl)phenoxy)-1,2,3,4-tetrahydroisoquinolin-1-yl)pyrrolidin-1-yl)prop-2-en-1-one] was tested. Which IC50 did it give?
The IC50 was 0.001 to 10 µM.

`O=C(CCn1cncn1)N1CCc2ccc(Oc3ccc(C(F)(F)F)c(F)c3)cc2C1` [P-0153, 1-(7-(3-fluoro-4-(trifluoromethyl)phen-oxy)-3,4-dihydroisoquin-olin-2(1H)-yl)-3-(1H-1,2,4-triazol-1-yl)propan-1-one] was tested. Which IC50 did it give?
The IC50 was 0.001 to 10 µM.

`C=CS(=O)(=O)N1CCC(C(=O)N2CCc3ccc(Oc4ccc(C(F)(F)F)c(F)c4)cc3C2)CC1` [P-0159] was tested. Which IC50 did it give?
Its IC50 is 0.001 to 10 µM.

Which IC50 does the source give for `O=C(C1CCNC1)N1CCc2ccc(Oc3ccc(C(F)(F)F)c(F)c3)cc2C1` (centres unmarked) [P-0145, (7-(3-fluoro-4-(trifluoro-methyl)phenoxy)-3,4-dihydroisoquinolin-2(1H)-yl)(pyrrolidin-3-yl)methanone] here?
Its IC50 is 0.001 to 10 µM.

Which IC50 does the source give for `NS(=O)(=O)c1ccnc(N2CCc3ccc(Oc4ccc(C(F)(F)F)cc4)cc3C2)c1` [P-0230, 2-(7-(4-(trifluorometh-yl)phenoxy)-3,4-dihydro-isoquinolin-2(1H)-yl)-pyridine-4-sulfonamide] here?
The IC50 was 0.001 to 10 µM.

`Cc1nnc(CCC(=O)N2CCc3ccc(Oc4ccc(C(F)(F)F)cc4)cc3C2)o1` [P-0063, 3-(5-methyl-1,3,4-oxadi-azol-2-yl)-1-(7-(4-(trifluoromethyl)phen-oxy)-3,4-dihydroisoquin-olin-2(1H)-yl)propan-1-one] was tested. Which IC50 did it give?
Its IC50 is 0.001 to 10 µM.

With `N#CCCC(=O)N1CCc2ccc(Oc3ccc(C(F)(F)F)cc3)cc2C1` [P-0040, 4-oxo-4-(7-(4-(trifluoro-methyl)phenoxy)-3,4-dihydroisoquinolin-2(1H)-yl)butanenitrile] as the compound, how does the IC50 read?
The IC50 was 0.001 to 10 µM.

Which IC50 does the source give for `NS(=O)(=O)N1CC(C(=O)N2CCc3ccc(Oc4ccc(C(F)(F)F)cc4)cc3C2)C1` [P-0102, 3-(7-(4-(trifluoromethyl)-phenoxy)-1,2,3,4-tetra-hydroisoquinoline-2-carbonyl)azetidine-1-sulfonamide] here?
The IC50 was 0.001 to 10 µM.

Which IC50 does the source give for `CC(=O)N1CC=C(c2c(Oc3ccc(C(F)(F)F)cc3)ccc3c2CN(C(=O)CCS(C)(=O)=O)CC3)CC1` [P-0214, 1-(8-(1-acetyl-1,2,3,6-tetrahydropyridin-4-yl)-7-(4-(trifluoromethyl)-phenoxy)-3,4-dihydroiso-quinolin-2(1H)-yl)-3-(methylsulfonyl)propan-1-one] here?
The IC50 was 10 to 100 µM.

Which IC50 does the source give for `NC(=O)CCC(=O)N1CCc2ccc(Oc3ccc(C(F)(F)F)cc3)cc2C1` [P-0039, 4-oxo-4-(7-(4-(trifluoro-methyl)phenoxy)-3,4-dihydroisoquinolin-2(1H)-yl)butanamide] here?
Its IC50 is 0.001 to 10 µM.

Which IC50 does the source give for `CNS(=O)(=O)NCC(=O)N1CCc2ccc(Oc3ccc(C(F)(F)F)cc3)cc2C1` [P-0128, N-methyl-N′-(2-(7-(4-(trifluoromethyl)phen-oxy)-3,4-dihydroisoquin-olin-2(1H)-yl)-2-oxoeth-yl)sulfamide] here?
The IC50 was 0.001 to 10 µM.

With `CN(C)CCC(=O)N1CCc2ccc(Oc3ccc(C(F)(F)F)c(F)c3)cc2C1` [P-0094, 3-(dimethylamino)-1-(7-(3-fluoro-4-(trifluoro-methyl)phenoxy)-3,4-dihydroisoquinolin-2(1H)-yl)propan-1-one] as the compound, how does the IC50 read?
Its IC50 is 0.001 to 10 µM.

`CN(C)CCCC(=O)N1CCc2c(cccc2Oc2ccc(C(F)(F)F)cc2)C1` [P-0263, 4-(dimethylamino)-1-(5-(4-(trifluoromethyl)phen-oxy)-3,4-dihydroisoquin-olin-2(1H)-yl)butan-1-one] was tested. Which IC50 did it give?
Its IC50 is 0.001 to 10 µM.

`O=C(CCc1nnc[nH]1)N1CCc2ccc(Oc3ccc(C(F)(F)F)cc3)cc2C1` [P-0058, 3-(4H-1,2,4-triazol-3-yl)-1-(7-(4-(trifluorometh-yl)phenoxy)-3,4-dihydro-isoquinolin-2(1H)-yl)-propan-1-one] was tested. Which IC50 did it give?
The IC50 was 0.001 to 10 µM.

How did the IC50 turn out when `CS(=O)(=O)CCC(=O)N1CCc2ccc(Oc3ccc(C(F)(F)F)cc3)cc2C1CC1CN(C(=O)CO)C1` (centres unmarked) [P-0202, 1-(1-((1-(2-hydroxyacet-yl)azetidin-3-yl)methyl)-7-(4-(trifluoromethyl)-phenoxy)-3,4-dihydro-isoquinolin-2(1H)-yl)-3-(methylsulfonyl)-propan-1-one] was run?
The IC50 was 0.001 to 10 µM.

For `O=C(CC1CCS(=O)(=O)C1)N1CCc2ccc(Oc3ccc(C(F)(F)F)cc3)cc2C1` (centres unmarked) [P-0059, 2-(1,1-dioxidotetrahydro-thiophen-3-yl)-1-(7-(4-(trifluoromethyl)phen-oxy)-3,4-dihydroisoquin-olin-2(1H)-yl)ethan-1-one], which IC50 is on record?
The IC50 was 0.001 to 10 µM.

Which IC50 does the source give for `N#CCCS(=O)(=O)N1CCc2ccc(Oc3ccc(C(F)(F)F)cc3)cc2C1` [P-0049, 3-((7-(4-(trifluorometh-yl)phenoxy)-3,4-dihydro-isoquinolin-2(1H)-yl)sul-fonyl)propanenitrile] here?
The IC50 was 0.001 to 10 µM.

With `NS(=O)(=O)NCC(=O)N1CCc2ccc(Oc3ccc(C(F)(F)F)cc3)cc2C1` [P-0054, N-(2-(7-(4-(trifluorometh-yl)phenoxy)-3,4-dihydro-isoquinolin-2(1H)-yl)-2-oxoethyl)sulfamide] as the compound, how does the IC50 read?
Its IC50 is 0.001 to 10 µM.

`N=C(N)NCC(=O)N1CCc2ccc(Oc3ccc(C(F)(F)F)cc3)cc2C1` [P-0098, 1-(2-oxo-2-(7-(4-(trifluoromethyl)phen-oxy)-3,4-dihydroiso-quinolin-2(1H)-yl)-ethyl)guanidine] was tested. Which IC50 did it give?
Its IC50 is 0.001 to 10 µM.

Which IC50 does the source give for `O=C1CC(CC(=O)N2CCc3ccc(Oc4ccc(C(F)(F)F)cc4)cc3C2)C(=O)N1` (centres unmarked) [P-0043, 3-(2-oxo-2-(7-(4-(trifluoromethyl)phen-oxy)-3,4-dihydroiso-quinolin-2(1H)-yl)ethyl)-pyrrolidine-2,5-dione] here?
The IC50 was 0.001 to 10 µM.

With `CS(=O)(=O)CCC(=O)N1CCc2ccc(Oc3ccc(C(F)(F)F)cc3)c(Br)c2C1` [P-0205, 1-(8-bromo-7-(4-(trifluoromethyl)phen-oxy)-3,4-dihydroisoquin-olin-2(1H)-yl)-3-(methyl-sulfonyl)propan-1-one] as the compound, how does the IC50 read?
The IC50 was 0.001 to 10 µM.

For `O=C(CCS(=O)(=O)C(F)(F)F)N1CCc2ccc(Oc3ccc(C(F)(F)F)c(F)c3)cc2C1` [P-0141, 1-(7-(3-fluoro-4-(trifluoromethyl)phen-oxy)-3,4-dihydroiso-quinolin-2(1H)-yl)-3-((trifluoromethyl)sulfon-yl)propan-1-one], which IC50 is on record?
Its IC50 is 0.001 to 10 µM.

How did the IC50 turn out when `CS(=O)(=O)CCC(=O)N1CCc2ccc(Oc3ccc(C(F)(F)F)cc3)c(/C=C/C3CC3)c2C1` [P-0220, (E)-1-(8-(2-cyclopropyl-vinyl)-7-(4-(trifluoro-methyl)phenoxy)-3,4-dihydroisoquinolin-2(1H)-yl)-3-(methylsul-fonyl)propan-1-one] was run?
Its IC50 is 0.001 to 10 µM.

How did the IC50 turn out when `NC(=O)CN1CCc2ccc(Oc3ccc(C(F)(F)F)cc3)cc2C1` [P-0026, 2-(7-(4-(trifluorometh-yl)phenoxy)-3,4-dihydro-isoquinolin-2(1H)-yl)-acetamide] was run?
The IC50 was 0.001 to 10 µM.

How did the IC50 turn out when `NC(=O)NCC(=O)N1CCc2c(cccc2Oc2ccc(C(F)(F)F)cc2)C1` [P-0270, 1-(2-oxo-2-(5-(4-(trifluoromethyl)phen-oxy)-3,4-dihydroisoquin-olin-2(1H)-yl)ethyl)urea] was run?
Its IC50 is 0.001 to 10 µM.

`COCC(C)NC(=O)N1CCc2c(cccc2Oc2ccc(C(F)(F)F)cc2)C1` (centres unmarked) [P-0266, N-(1-methoxypropan-2-yl)-5-(4-(trifluorometh-yl)phenoxy)-3,4-dihydro-isoquinoline-2(1H)-carboxamide] was tested. Which IC50 did it give?
The IC50 was 0.001 to 10 µM.

For `Cc1nnc(CCC(=O)N2CCc3ccc(Oc4ccc(C(F)(F)F)cc4)cc3C2)s1` [P-0046, 3-(5-methyl-1,3,4-thiadi-azol-2-yl)-1-(7-(4-(trifluoromethyl)phen-oxy)-3,4-dihydroisoquin-olin-2(1H)-yl)propan-1-one], which IC50 is on record?
The IC50 was 0.001 to 10 µM.

Which IC50 does the source give for `CS(=O)(=O)CCC(=O)N1CCc2ccc(Oc3ccc(C(F)(F)F)cc3)cc2C1C1CCOCC1` (centres unmarked) [P-0211, 3-(methylsulfonyl)-1-(1-(tetrahydro-2H-pyran-4-yl)-7-(4-(trifluorometh-yl)phenoxy)-3,4-dihydro-isoquinolin-2(1H)-yl)-propan-1-one] here?
Its IC50 is 0.001 to 10 µM.

Which IC50 does the source give for `CS(=O)(=O)c1cccnc1C(=O)N1CCc2ccc(Oc3ccc(C(F)(F)F)cc3)cc2C1` [P-0074, (3-(methylsulfonyl)pyr-idin-2-yl)(7-(4-(trifluoro-methyl)phenoxy)-3,4-dihydroisoquinolin-2(1H)-yl)methanone] here?
Its IC50 is 0.001 to 10 µM.
